Experimental data from patent US9468647B2, “Methods for the treatment of endometriosis” (Miscon Trading S.A., priority 2003, dated 2016).

Test system: endometriosis
Experiment: Intralesional administration of progesterone in women with endometriosis (case reports)
Format: in vivo, human
Conditions: person, 1 g intracystic and 1 g in each bladder nodule, follow up over 12 months
Method: They were regularly monitored by pain scores (visual analog), direct questionnaire, and ultrasound examination. […] Aspiration of the endometrioma and intracystic instillation of 1 g of progesterone was performed. Cystoscopy was carried out and 1 g of progesterone was instilled in each of the nodules in the bladder.

In the case of `CC(=O)[C@H]1CC[C@H]2[C@@H]3CCC4=CC(=O)CC[C@]4(C)[C@H]3CC[C@]12C` [progesterone], the “symptoms on follow up” value (ovarian endometrioma and bladder wall nodules) was “remained symptom free” and the “quality of life with regard to pelvic pain and urinary symptoms” value was “good”.
